Measured values taken from ChEMBL document CHEMBL1201862, “PubChem BioAssay data set” (2004).
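Method: 48-hour compound exposure of cells in 96-well plates, five concentrations, linear interpolation of endpoints. GI50 marks 50% less growth.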 Active and inactive are the calls of the source. Cut-off read from the data, not from the text of the source: active = GI50 up to about 1.1 µM and inactive = higher.

Legend:
Test in all cases: NCI anticancer screen, dose series, 48 h
IGROV-1 = system: IGROV-1
COLO 205 = system: COLO 205
UACC-62 = system: UACC-62
KM12 = system: KM12
DMS-273 = system: DMS-273
K562 = system: K562
NCI-H226 = system: NCI-H226
KM-20L2 = system: KM-20L2
RXF 393 = system: RXF 393
SK-OV-3 = system: SK-OV-3
TK-10 = system: TK-10
HOP-18 = system: HOP-18
NCI-H460 = system: NCI-H460
DLD-1 = system: DLD-1
RXF 631 = system: RXF 631
SF-295 = system: SF-295
LOX IMVI = system: LOX IMVI
786-0 = system: 786-0
UACC-257 = system: UACC-257
M19-MEL = system: M19-MEL
SF-268 = system: SF-268
HT-29 = system: HT-29
OVCAR-5 = system: OVCAR-5
HOP-92 = system: HOP-92
ACHN = system: ACHN
HCT-15 = system: HCT-15
SF-539 = system: SF-539
SNB-78 = system: SNB-78
HOP-62 = system: HOP-62
OVCAR-4 = system: OVCAR-4
M14 = system: M14
RPMI-8226 = system: RPMI-8226
HCT-116 = system: HCT-116
MOLT-4 = system: MOLT-4
OVCAR-8 = system: OVCAR-8
A549 = system: A549
NCI-H522 = system: NCI-H522
SN12C = system: SN12C
HCC 2998 = system: HCC 2998
NCI-H23 = system: NCI-H23
LXFL 529 = system: LXFL 529
A498 = system: A498
Malme-3M = system: Malme-3M
CCRF-CEM = system: CCRF-CEM
EKVX = system: EKVX
SNB-19 = system: SNB-19
SK-MEL-5 = system: SK-MEL-5
UO-31 = system: UO-31
SK-MEL-28 = system: SK-MEL-28
SW-620 = system: SW-620
DMS-114 = system: DMS-114
OVCAR-3 = system: OVCAR-3
U-251 = system: U-251
HL-60 = system: HL-60

Cc1ccc(-c2cc(-c3ccccc3)c(C#N)c(=O)n2C2OC(CO)C(O)C(O)C2O)cc1 (centres undefined)
GI50 (IGROV-1): > 100 µM (inactive) | GI50 (COLO 205): > 100 µM (inactive) | GI50 (UACC-62): > 100 µM (inactive) | GI50 (KM12): > 100 µM (inactive) | GI50 (DMS-273): > 100 µM (inactive) | GI50 (K562): 86.7 µM (inactive) | GI50 (NCI-H226): > 100 µM (inactive) | GI50 (KM-20L2): > 100 µM (inactive) | GI50 (RXF 393): > 100 µM (inactive) | GI50 (SK-OV-3): > 100 µM (inactive) | GI50 (TK-10): > 100 µM (inactive) | GI50 (HOP-18): > 100 µM (inactive) | GI50 (NCI-H460): > 100 µM (inactive) | GI50 (DLD-1): > 100 µM (inactive) | GI50 (RXF 631): > 100 µM (inactive) | GI50 (SF-295): > 100 µM (inactive) | GI50 (LOX IMVI): > 100 µM (inactive) | GI50 (786-0): > 100 µM (inactive) | GI50 (UACC-257): > 100 µM (inactive) | GI50 (M19-MEL): > 100 µM (inactive) | GI50 (SF-268): > 100 µM (inactive) | GI50 (HT-29): > 100 µM (inactive) | GI50 (OVCAR-5): > 100 µM (inactive) | GI50 (HOP-92): > 100 µM (inactive) | GI50 (ACHN): > 100 µM (inactive) | GI50 (HCT-15): > 100 µM | GI50 (SF-539): > 100 µM (inactive) | GI50 (SNB-78): > 100 µM (inactive) | GI50 (HOP-62): > 100 µM (inactive) | GI50 (OVCAR-4): > 100 µM (inactive) | GI50 (M14): > 100 µM (inactive) | GI50 (RPMI-8226): > 100 µM (inactive) | GI50 (HCT-116): > 100 µM (inactive) | GI50 (MOLT-4): 21.1 µM (inactive) | GI50 (OVCAR-8): > 100 µM (inactive) | GI50 (A549): > 100 µM (inactive) | GI50 (NCI-H522): > 100 µM (inactive) | GI50 (SN12C): > 100 µM (inactive) | GI50 (HCC 2998): > 100 µM (inactive) | GI50 (NCI-H23): > 100 µM (inactive) | GI50 (LXFL 529): > 100 µM (inactive) | GI50 (A498): > 100 µM (inactive) | GI50 (Malme-3M): > 100 µM (inactive) | GI50 (CCRF-CEM): > 100 µM (inactive) | GI50 (EKVX): > 100 µM (inactive) | GI50 (SNB-19): > 100 µM (inactive) | GI50 (SK-MEL-5): 58.5 µM (inactive) | GI50 (UO-31): > 100 µM (inactive) | GI50 (SK-MEL-28): > 100 µM (inactive) | GI50 (SW-620): > 100 µM (inactive) | GI50 (DMS-114): > 100 µM (inactive) | GI50 (OVCAR-3): > 100 µM (inactive) | GI50 (U-251): > 100 µM (inactive) | GI50 (HL-60): > 100 µM (inactive)
